We go through 17 molecules from patent publication US20140005163A1 (NOVARTIS AG, priority 2010, published 2014).

In assay [1] the target is T1, PI3K alpha (Homo sapiens, UniProt P42336).
T1 construct: p85(iSH2) fusion partner (see partner chain) (N); His tag (C); made in house; host or cells: baculovirus; Tn5 (Trichoplusia ni) or TiniPro insect cells
In words: PI3K alpha kinase assay (Kinase-Glo luminescence). Format: biochemical. The method, boiled down: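 Enzyme 10 nM PI3Kα EMV B1075; ATP 1 μM; PI 10 μg/mL; Tris-HCl pH 7.5 10 mM, MgCl2 3 mM, NaCl 50 mM, CHAPS 0.05%, DTT 1 mM; 60 min RT; Kinase-Glo luminescence; 4-parameter IC50 fit, 8 concentrations, single points.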
In general terms: Kinase-Glo reads ATP consumption through a luciferase reaction.

The test system of assay [2] is PKB Ser473 phosphorylation in Rat1-myr-HA-p110 delta cells. In words: Reverse protein array assay, PKB Ser473 phosphorylation in Rat1-myr-p110 delta cells. The format is cell-based. Particulars: read-out: p-PKB IC50. A digest of the protocol: (§1)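 After at least 20 h of culture, the p110 isoform-transfected Rat1 lines receive compound in an 8-step dilution series, keeping DMSO at 0.2%, for 30 minutes. Cells are then lysed and lysates arrayed on chips for fluorescence detection of Ser473-phosphorylated PKB.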

Assay [3] concerns the target T2, PI3K delta (Homo sapiens, UniProt O00329).
T2 construct: for the full-length p110-d subunit are generated and fused by overlapping PCR; p85(iSH2) fusion partner (see partner chain) (N); His tag (C); made in house; host or cells: baculovirus; Tn5 (Trichoplusia ni) or TiniPro insect cells
As to the kind of experiment: PI3K delta kinase assay (Kinase-Glo luminescence). The format is biochemical. The method, boiled down:
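Lipid kinase activity of a His-tagged p110δ full-length/p85 iSH2 fusion (10 nM) toward bovine liver phosphatidylinositol (10 μg/mL) at 1 μM ATP, pH 7.5, 60 min, room temperature. ATP consumption is quantified by luciferase-based luminescence. Four-parameter logistic fitting gives IC50.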

For assay [4], the system named is PKB Ser473 phosphorylation in Rat1-myr-HA-p110 beta cells. In words: Reverse protein array assay, PKB Ser473 phosphorylation in Rat1-myr-p110 beta cells. As to conditions: 0.5 h, pAkt Ser473, 30 minutes incubation, read-out: p-PKB IC50. Format: cell-based. The method, boiled down: as §1
Assay [5] addresses T3, PI3K beta (Homo sapiens, UniProt P42338).
T3 construct: for the full-length p110-b subunit are generated and fused by overlapping PCR; p85(iSH2) fusion partner (see partner chain) (N); His tag (C); made in house; host or cells: baculovirus; Tn5 (Trichoplusia ni) or TiniPro insect cells
As to the kind of experiment: PI3K beta kinase assay (Kinase-Glo luminescence). Format: biochemical. A digest of the protocol: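 Kinase-Glo luminescence after a 60 min room-temperature reaction gives remaining ATP. The reaction holds 25 nM p85(iSH2)-p110β full-length His-tagged construct, 1 μM ATP, 10 μg/mL PI, and eight compound concentrations at 0.45% DMSO final. IC50 values come from a four-parameter logistic fit.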

T2 sequence (O00329 with tags, fused parts or gaps limits assumed): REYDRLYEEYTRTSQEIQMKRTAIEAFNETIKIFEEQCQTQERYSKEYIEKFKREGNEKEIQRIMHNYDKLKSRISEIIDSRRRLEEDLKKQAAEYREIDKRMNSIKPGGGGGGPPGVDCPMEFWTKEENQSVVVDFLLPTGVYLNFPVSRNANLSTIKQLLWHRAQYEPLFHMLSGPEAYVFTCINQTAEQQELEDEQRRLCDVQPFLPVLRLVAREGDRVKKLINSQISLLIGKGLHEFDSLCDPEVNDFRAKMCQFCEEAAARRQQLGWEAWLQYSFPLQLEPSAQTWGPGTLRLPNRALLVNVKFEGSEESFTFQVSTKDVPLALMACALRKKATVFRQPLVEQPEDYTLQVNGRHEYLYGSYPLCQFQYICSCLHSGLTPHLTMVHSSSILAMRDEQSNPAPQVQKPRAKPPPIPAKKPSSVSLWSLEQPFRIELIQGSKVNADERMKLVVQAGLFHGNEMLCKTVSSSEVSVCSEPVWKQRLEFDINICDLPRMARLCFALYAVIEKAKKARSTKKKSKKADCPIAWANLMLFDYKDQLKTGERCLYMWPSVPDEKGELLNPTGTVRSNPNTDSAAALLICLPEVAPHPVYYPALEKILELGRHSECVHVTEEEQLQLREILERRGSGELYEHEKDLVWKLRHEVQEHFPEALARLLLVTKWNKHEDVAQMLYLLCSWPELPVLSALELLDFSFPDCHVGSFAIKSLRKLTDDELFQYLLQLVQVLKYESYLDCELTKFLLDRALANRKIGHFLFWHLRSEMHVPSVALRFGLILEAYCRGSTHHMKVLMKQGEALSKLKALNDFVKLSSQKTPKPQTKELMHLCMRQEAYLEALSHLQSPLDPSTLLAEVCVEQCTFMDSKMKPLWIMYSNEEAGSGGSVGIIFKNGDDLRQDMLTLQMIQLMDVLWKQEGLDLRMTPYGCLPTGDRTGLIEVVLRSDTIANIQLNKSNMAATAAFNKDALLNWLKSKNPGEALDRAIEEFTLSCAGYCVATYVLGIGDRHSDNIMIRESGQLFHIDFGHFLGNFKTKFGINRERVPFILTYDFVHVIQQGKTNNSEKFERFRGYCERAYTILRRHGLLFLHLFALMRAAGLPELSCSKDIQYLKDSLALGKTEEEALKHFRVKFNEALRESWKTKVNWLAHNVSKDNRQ
T3 sequence (P42338 with tags, fused parts or gaps limits assumed): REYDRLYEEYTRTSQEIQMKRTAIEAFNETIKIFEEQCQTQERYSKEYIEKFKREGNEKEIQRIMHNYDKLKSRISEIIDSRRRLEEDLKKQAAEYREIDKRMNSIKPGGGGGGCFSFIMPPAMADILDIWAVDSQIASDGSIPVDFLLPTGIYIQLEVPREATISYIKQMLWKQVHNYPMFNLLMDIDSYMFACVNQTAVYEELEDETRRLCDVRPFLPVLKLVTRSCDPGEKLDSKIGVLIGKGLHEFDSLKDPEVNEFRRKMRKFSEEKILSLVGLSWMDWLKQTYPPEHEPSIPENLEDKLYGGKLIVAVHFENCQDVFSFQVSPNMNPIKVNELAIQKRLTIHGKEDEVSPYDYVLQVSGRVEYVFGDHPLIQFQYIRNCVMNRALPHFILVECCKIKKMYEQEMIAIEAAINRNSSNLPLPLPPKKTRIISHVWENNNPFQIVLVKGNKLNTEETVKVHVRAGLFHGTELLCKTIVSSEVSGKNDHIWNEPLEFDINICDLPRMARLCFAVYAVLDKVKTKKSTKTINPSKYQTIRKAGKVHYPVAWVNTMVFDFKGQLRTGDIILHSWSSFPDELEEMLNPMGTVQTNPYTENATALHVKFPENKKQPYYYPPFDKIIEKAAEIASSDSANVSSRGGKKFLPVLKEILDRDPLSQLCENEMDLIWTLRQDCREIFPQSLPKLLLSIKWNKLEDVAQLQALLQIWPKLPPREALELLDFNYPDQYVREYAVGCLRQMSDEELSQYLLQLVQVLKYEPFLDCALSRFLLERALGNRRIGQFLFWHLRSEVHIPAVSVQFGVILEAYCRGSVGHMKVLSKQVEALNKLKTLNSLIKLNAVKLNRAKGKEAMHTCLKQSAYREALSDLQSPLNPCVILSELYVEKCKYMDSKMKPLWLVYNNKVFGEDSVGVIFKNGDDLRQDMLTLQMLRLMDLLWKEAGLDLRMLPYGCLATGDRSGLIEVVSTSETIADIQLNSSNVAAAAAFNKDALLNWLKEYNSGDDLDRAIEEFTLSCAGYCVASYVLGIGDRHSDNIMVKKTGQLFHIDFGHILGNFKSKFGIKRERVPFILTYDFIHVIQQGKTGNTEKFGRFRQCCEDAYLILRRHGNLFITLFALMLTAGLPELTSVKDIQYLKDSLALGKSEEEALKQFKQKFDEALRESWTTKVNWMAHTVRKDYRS
T1 sequence (P42336 with tags, fused parts or gaps limits assumed): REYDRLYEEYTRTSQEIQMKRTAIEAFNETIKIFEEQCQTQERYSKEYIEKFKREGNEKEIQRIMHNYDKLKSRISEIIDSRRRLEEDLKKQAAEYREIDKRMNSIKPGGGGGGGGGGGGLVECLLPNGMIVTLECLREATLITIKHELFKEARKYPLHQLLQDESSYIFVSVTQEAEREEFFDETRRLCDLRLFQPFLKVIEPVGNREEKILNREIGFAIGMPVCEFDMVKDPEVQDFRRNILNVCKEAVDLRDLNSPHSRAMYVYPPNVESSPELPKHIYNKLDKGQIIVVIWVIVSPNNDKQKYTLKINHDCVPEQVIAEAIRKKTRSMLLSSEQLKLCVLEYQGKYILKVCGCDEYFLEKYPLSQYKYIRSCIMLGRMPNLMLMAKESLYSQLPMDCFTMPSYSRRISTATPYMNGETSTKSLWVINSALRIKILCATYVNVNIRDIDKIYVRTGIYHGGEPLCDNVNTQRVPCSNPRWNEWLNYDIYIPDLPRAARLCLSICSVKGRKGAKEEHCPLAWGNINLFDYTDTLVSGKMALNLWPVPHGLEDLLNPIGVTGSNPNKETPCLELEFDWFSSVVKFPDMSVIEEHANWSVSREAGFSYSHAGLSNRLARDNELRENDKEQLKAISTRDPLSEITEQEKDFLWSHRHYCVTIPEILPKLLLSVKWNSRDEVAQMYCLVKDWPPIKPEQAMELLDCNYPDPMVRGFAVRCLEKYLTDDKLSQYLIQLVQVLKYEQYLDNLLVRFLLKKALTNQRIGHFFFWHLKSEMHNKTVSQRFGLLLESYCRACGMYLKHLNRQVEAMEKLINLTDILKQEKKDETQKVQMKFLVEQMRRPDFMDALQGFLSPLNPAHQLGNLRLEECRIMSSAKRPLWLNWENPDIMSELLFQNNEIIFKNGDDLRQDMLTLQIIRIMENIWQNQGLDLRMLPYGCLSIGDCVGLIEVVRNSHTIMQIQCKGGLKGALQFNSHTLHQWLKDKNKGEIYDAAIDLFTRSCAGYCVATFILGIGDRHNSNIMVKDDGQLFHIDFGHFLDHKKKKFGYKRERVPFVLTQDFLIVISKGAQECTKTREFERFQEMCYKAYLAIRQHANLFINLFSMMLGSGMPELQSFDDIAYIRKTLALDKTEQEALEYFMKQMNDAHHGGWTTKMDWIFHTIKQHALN

Broadly, the IC50 is the concentration that inhibits the measured activity by half. Consider `COc1ncc(-c2ccc3ncc4c(c3c2)n(-c2cn(C)nc2C)c(=O)n4C)cc1C#N` [Example 132, 5-[1-(1,3-Dimethyl-1H-pyrazol-4-yl)-3-methyl-2-oxo-2,3-dihydro-1H-imidazo[4,5-c]quinolin-8-yl]-2-methoxy-nicotinonitrile], for which the half-maximal inhibitory concentration (IC50) was determined as 138 nM in assay [1]; 145 nM in assay [2]; 58 nM in assay [3]; 99 nM in assay [4]; 161 nM in assay [5].
`CCN(C)C(=O)Cn1cc(-n2c(=O)n(C)c3cnc4ccc(-c5cncc(OC(C)C)c5)cc4c32)c(C)n1` [Example 58.5, N-Ethyl-2-{4-[8-(5-isopropoxy-pyridin-3-yl)-3-methyl-2-oxo-2,3-dihydro-imidazo[4,5-c]quinolin-1-yl]-3-methyl-pyrazol-1-yl}-N-methyl-acetamide]: the IC50 was determined as 7 nM in assay [1]; 357 nM in assay [2]; 39 nM in assay [3]; 102 nM in assay [4]; 69 nM in assay [5].
The matching figures for `Cc1nn(C)cc1-n1c(=O)n(C)c2cnc3ccc(-c4cncc(C(C)(C)O)c4)cc3c21` [Example 215.2, 1-(1,3-Dimethyl-1H-pyrazol-4-yl)-8-[5-(1-hydroxy-1-methyl-ethyl)-pyridin-3-yl]-3-methyl-1,3-dihydro-imidazo[4,5-c]quinolin-2-one]: 14 nM, 178 nM, 11 nM, 113 nM and 10 nM.
For `CCn1cc(-n2c(=O)n(C)c3cnc4ccc(-c5ccc(NC)nc5)cc4c32)c(C)n1` [Example 118.4, 1-(1-Ethyl-3-methyl-1H-pyrazol-4-yl)-3-methyl-8-(6-methylamino-pyridin-3-yl)-1,3-dihydro-imidazo[4,5-c]quinolin-2-one] the same measures were 20 nM, 21 nM, 19 nM, below 5 nM and 130 nM.
The matching figures for `CCn1cc(-n2c(=O)n(C)c3cnc4ccc(-c5cnc(COC)c(OC)c5)cc4c32)c(C)n1` [Example 195.3, 1-(1-Ethyl-3-methyl-1H-pyrazol-4-yl)-8-(5-methoxy-6-methoxymethyl-pyridin-3-yl)-3-methyl-1,3-dihydro-imidazo[4,5-c]quinolin-2-one]: 48 nM, 255 nM, 34 nM, 184 nM and 161 nM.
For the molecule `CCNc1cc(-c2ccc3ncc4c(c3c2)n(-c2c(C)nn(C)c2C)c(=O)n4C)cnc1F` [Example 154.1, 8-(5-Ethylamino-6-fluoro-pyridin-3-yl)-3-methyl-1-(1,3,5-trimethyl-1H-pyrazol-4-yl)-1,3-dihydro-imidazo[4,5-c]quinolin-2-one], the IC50 in assay [1] was 157 nM; in assay [2] it was 141 nM; in assay [3], 37 nM; in assay [4], 104 nM; in assay [5], 98 nM.
As for `Cc1nn(C)cc1-n1c(=O)n(C)c2cnc3ccc(-c4cnc5cc[nH]c5c4)cc3c21` [Example 99, 1-(1,3-Dimethyl-1H-pyrazol-4-yl)-3-methyl-8-(1H-pyrrolo[3,2-b]pyridin-6-yl)-1,3-dihydro-imidazo[4,5-c]quinolin-2-one], the half-maximal inhibitory concentration (IC50) turned out to be 16 nM in assay [1]; 19 nM in assay [2]; 6 nM in assay [3]; 16 nM in assay [4]; 33 nM in assay [5].
As for `CNc1ncc(-c2ccc3ncc4c(c3c2)n(-c2cc(C)nn2C)c(=O)n4C)cc1Cl` [Example 146.5, 8-(5-Chloro-6-methylamino-pyridin-3-yl)-1-(2,5-dimethyl-2H-pyrazol-3-yl)-3-methyl-1,3-dihydro-imidazo[4,5-c]quinolin-2-one], the IC50 stood at 9 nM in assay [1]; 59 nM in assay [2]; 3 nM in assay [3]; 29 nM in assay [4]; 167 nM in assay [5].
For `Cc1noc(C)c1-n1c(=O)n(C)c2cnc3ccc(-c4cnc(N)c(Cl)c4)cc3c21` [Example 148.4, 8-(6-Amino-5-chloro-pyridin-3-yl)-1-(3,5-dimethyl-isoxazol-4-yl)-3-methyl-1,3-dihydro-imidazo[4,5-c]quinolin-2-one] the same measures were 100 nM, 370 nM, 45 nM, 207 nM and 95 nM.
Consider `Cc1nn(C)cc1-n1c(=O)n(C)c2cnc3ccc(-c4cncc(C5(O)CCCC5)c4)cc3c21` [Example 218, 1-(1,3-Dimethyl-1H-pyrazol-4-yl)-8-[5-(1-hydroxy-cyclopentyl)-pyridin-3-yl]-3-methyl-1,3-dihydro-imidazo[4,5-c]quinolin-2-one], for which the IC50 in assay [1] came out at 13 nM; in assay [2], 53 nM; in assay [3], 6 nM; in assay [4], 27 nM; in assay [5], 19 nM.
The matching figures for `Cc1ncc(-c2ccc3ncc4c(c3c2)n(-c2cn(C)nc2C)c(=O)n4C)cc1OC(C)C` [Example 84.1, 1-(1,3-Dimethyl-1H-pyrazol-4-yl)-8-(5-isopropoxy-6-methyl-pyridin-3-yl)-3-methyl-1,3-dihydro-imidazo[4,5-c]quinolin-2-one]: 6 nM, 18 nM, 4 nM, 8 nM and 8 nM.
The matching figures for `CCNc1cc(-c2ccc3ncc4c(c3c2)n(-c2c(C)nn(CCOC)c2C)c(=O)n4C)cnc1OC` [Example 90.2, 8-(5-Ethylamino-6-methoxy-pyridin-3-yl)-1-[1-(2-methoxy-ethyl)-3,5-dimethyl-1H-pyrazol-4-yl]-3-methyl-1,3-dihydro-imidazo[4,5-c]quinolin-2-one]: 44 nM, 46 nM, 26 nM, 10 nM and 115 nM.
The matching figures for `CNc1ncc(-c2ccc3ncc4c(c3c2)n(-c2c(C)nn(C)c2C)c(=O)n4C)cc1Cl` [Example 146.4, 8-(5-Chloro-6-methylamino-pyridin-3-yl)-3-methyl-1-(1,3,5-trimethyl-1H-pyrazol-4-yl)-1,3-dihydro-imidazo[4,5-c]quinolin-2-one]: 35 nM, 133 nM, 19 nM, 127 nM and 176 nM.
With `COc1ncc(-c2ccc3ncc4c(c3c2)n(-c2cn(C)nc2C)c(=O)n4C)cc1C(N)=O` [Example 125.2, 5-[1-(1,3-Dimethyl-1H-pyrazol-4-yl)-3-methyl-2-oxo-2,3-dihydro-1H-imidazo[4,5-c]quinolin-8-yl]-2-methoxy-nicotinamide], the half-maximal inhibitory concentration (IC50) was found to be 50 nM in assay [1]; 61 nM in assay [2]; 40 nM in assay [3]; 187 nM in assay [4]; 93 nM in assay [5].
In the case of `CCn1cc(-n2c(=O)n(C)c3cnc4ccc(-c5cnc(N(C)C)nc5)cc4c32)c(C)n1` [Example 6.4, 8-(2-Dimethylamino-pyrimidin-5-yl)-1-(1-ethyl-3-methyl-1H-pyrazol-4-yl)-3-methyl-1,3-dihydro-imidazo[4,5-c]quinolin-2-one], the IC50 in assay [1] is 60 nM; in assay [2], 62 nM; in assay [3] it was 44 nM; in assay [4], 52 nM; in assay [5], 495 nM.
The matching figures for `COc1cc(-c2ccc3ncc4c(c3c2)n(-c2cn(C)nc2C)c(=O)n4C)cnc1CO` [Example 193, 1-(1,3-Dimethyl-1H-pyrazol-4-yl)-8-(6-hydroxymethyl-5-methoxy-pyridin-3-yl)-3-methyl-1,3-dihydro-imidazo[4,5-c]quinolin-2-one]: 19 nM, 101 nM, 17 nM, 160 nM and 50 nM.
Consider `[2H]C([2H])([2H])OCc1ncc(-c2ccc3ncc4c(c3c2)n(-c2cn(C)nc2Cl)c(=O)n4C)cc1OC` [Example 199, 1-(3-Chloro-1-methyl-1H-pyrazol-4-yl)-8-(5-methoxy-6-trideuteromethoxymethyl-pyridin-3-yl)-3-methyl-1,3-dihydro-imidazo[4,5-c]quinolin-2-one], for which the 50% inhibitory concentration (IC50) turned out to be 15 nM in assay [1]; 29 nM in assay [2]; 5 nM in assay [3]; 26 nM in assay [4]; 27 nM in assay [5].
